# Laboratory results as given in patent US12703850B2, “Photostabilized compositions and a method for stabilizing photosensitive components” (Evonik Operations GmbH, priority 2022, dated 2026).
# Where a SMILES comes first, the peptide text is derived from it.
# Assays:
# Format in all cases: physicochemical
# [1] = Brown color index of solutions with 0.013 mM riboflavin exposed to day light, Example 2; conditions: for Brown colorization after exposure (in words): 2 mM, any type of aqueous solution used; for Brown color index in cell culture media (MEM) Day 7 / Brown color index in cell culture media (MEM) Day 0 / Brown color index in PBS Day 7 / Brown color index in PBS Day 0: with 0.013 mM riboflavin; for Brown color index in cell culture media (MEM) Day 7 / Brown color index in PBS Day 7: 7 days day light; for Color after exposure (in words): amino acid up to 32 mM, 7 days
# Description: Aqueous solutions of 2.5 mM L-Tryptophan (Trp) and 0.013 mM riboflavin were prepared in phosphate-buffered saline (D-PBS) as well as in Minimal Essential Medium (MEM). These solutions were used to dissolve the dipeptides L-alanyl-L-tyrosine dihydrate (Ala-Tyr) and glycyl-L-tyrosine dihydrate (Gly-Tyr) as well as the amino acids L-tyrosine (Tyr), L-alanine (Ala), and glycine (Gly) at several concentrations to create solvent mixtures. In example 1, the dipeptides were tested at concentrations of 0.5 mM, 2.5 mM and 10 mM and Tyr at a concentration of 0.5 mM. PBS and MEM as well as 2.5 mM Trp dissolved in PBS and MEM were used as controls. In example 2, the dipeptides and Tyr were tested at a concentration of 2 mM, Ala and Gly at 32 mM, and the solvent (PBS or MEM) was used as control (“solvent background”).
# (§1) The samples were exposed to electromagnetic radiation (day light) at room temperature for seven (example 2) as well as 14 days (example 1). A relative quantification of the brown color of the samples of example 1 was obtained by measuring the absorbance at 330 nm. The intensity of the brown color of samples of example 2 was determined by eye using a brown color index.
# Aqueous solutions of PBS or MEM containing 0.013 mM riboflavin show a week fluorescent yellow-green color. Exposure to electromagnetic radiation at room temperature for seven days results in a brown colorization of the MEM solution, while the yellow-green color in PBS solutions vanished.
# [2] = Brown color index of solutions without riboflavin exposed to day light, Example 2; conditions: for Brown color index in cell culture media (MEM) Day 7 / Brown color index in cell culture media (MEM) Day 0 / Brown color index in PBS Day 7 / Brown color index in PBS Day 0: without 0.013 mM riboflavin; for Brown color index in cell culture media (MEM) Day 7 / Brown color index in PBS Day 7: 7 days day light; for Brown color index in cell culture media (MEM) Day 7 / Brown color index in PBS Day 7 / Color after exposure (in words): room temperature; for Color after exposure (in words): amino acid up to 32 mM, 7 days electromagnetic radiation
# Description: […] These solutions were used to dissolve the dipeptides L-alanyl-L-tyrosine dihydrate (Ala-Tyr) and glycyl-L-tyrosine dihydrate (Gly-Tyr) as well as the amino acids L-tyrosine (Tyr), L-alanine (Ala), and glycine (Gly) at several concentrations to create solvent mixtures. In example 1, the dipeptides were tested at concentrations of 0.5 mM, 2.5 mM and 10 mM and Tyr at a concentration of 0.5 mM. PBS and MEM as well as 2.5 mM Trp dissolved in PBS and MEM were used as controls. In example 2, the dipeptides and Tyr were tested at a concentration of 2 mM, Ala and Gly at 32 mM, and the solvent (PBS or MEM) was used as control (“solvent background”).
# as §1
# Other control solutions of PBS and MEM without riboflavin were colorless at day 0.
# [3] = Brown colorization of tryptophan solutions exposed to day light (absorbance at 330 nm), Example 1; conditions: room temperature; for Effect on brown colorization of Trp solution / Effect on brown colorization compared with Tyr: day light; for Effect on brown colorization of Trp solution: 14 days; for Effect on brown colorization compared with Tyr: 0.5 mM Tyr-dipeptide versus 0.5 mM Tyr
# Description: Aqueous solutions of 2.5 mM L-Tryptophan (Trp) and 0.013 mM riboflavin were prepared in phosphate-buffered saline (D-PBS) as well as in Minimal Essential Medium (MEM). These solutions were used to dissolve the dipeptides L-alanyl-L-tyrosine dihydrate (Ala-Tyr) and glycyl-L-tyrosine dihydrate (Gly-Tyr) as well as the amino acids L-tyrosine (Tyr), L-alanine (Ala), and glycine (Gly) at several concentrations to create solvent mixtures. […] PBS and MEM as well as 2.5 mM Trp dissolved in PBS and MEM were used as controls.
# The intensity of the brown color was measured as absorbance difference at 330 nm.
# [4] = 7 days electromagnetic radiation, room temperature
# [5] = addition of 0.5 mM to 2.5 mM Trp in PBS or MEM, absorbance at 330 nm
# [6] = dipeptide concentrations of up to 10 mM, 2.5 mM Trp in PBS or MEM
SMILES,"Brown colorization after exposure (in words) [1, 4]","Brown color index in cell culture media (MEM) Day 7 ([1]; sample 2 mM, room temperature)",Brown color index in cell culture media (MEM) Day 0 ([1]; sample 2 mM),"Brown color index in PBS Day 7 ([1]; sample 2 mM, room temperature)",Brown color index in PBS Day 0 ([1]; sample 2 mM),"Effect on brown colorization of Trp solution [3, 5]",Brown color index in cell culture media (MEM) Day 7 ([2]; sample 32 mM),Brown color index in cell culture media (MEM) Day 0 ([2]; sample 32 mM),Brown color index in PBS Day 7 ([2]; sample 32 mM),Brown color index in PBS Day 0 ([2]; sample 32 mM),further results
"N[C@@H](Cc1ccc(O)cc1)C(=O)O [Tyr, L-tyrosine]",strong brown,5 (strong brown color),0 (no brown color),5 (strong brown color),0 (no brown color),reduce this colorization,–,–,–,–,Brown color index in cell culture media (MEM) Day 7 ([2]; sample 2 mM): 2 (moderate brown color); Brown color index in cell culture media (MEM) Day 0 ([2]; sample 2 mM): 0 (no brown color); Brown color index in PBS Day 7 ([2]; sample 2 mM): 0 (no brown color); Brown color index in PBS Day 0 ([2]; sample 2 mM): 0 (no brown color)
"C[C@H](N)C(=O)N[C@@H](Cc1ccc(O)cc1)C(=O)O.O.O [Ala-Tyr, L-alanyl-L-tyrosine dihydrate] (H-Ala-Tyr-OH)",normal brown color,3,0 (no brown color),3,0 (no brown color),reduce this colorization,1 (week brown color),0 (no brown color),0 (no brown color),0 (no brown color),"Effect on brown colorization compared with Tyr ([3]; 2.5 mM Trp in PBS or MEM): the effect is greater; Effect on brown colorization of Trp solution [3, 6]: further reduction or even completely prevented the change in color"
"N[C@@H](Cc1c[nH]c2ccccc12)C(=O)O [Trp, L-Tryptophan]",–,–,–,–,–,–,–,–,–,–,Color change on exposure to electromagnetic radiation ([3]; 2.5 mM Trp alone in PBS or MEM): strong color change towards brown color
"NCC(=O)O [Gly, glycine]",–,–,–,–,–,–,1 (week brown color),0 (no brown color),0 (no brown color),0 (no brown color),"Color after exposure (in words) ([1]; MEM with 0.013 mM riboflavin): normal brown; Color after exposure (in words) ([1]; PBS with 0.013 mM riboflavin): stayed colorless; Brown color index in cell culture media (MEM) Day 7 ([1]; sample 32 mM, room temperature): 3; Brown color index in cell culture media (MEM) Day 0 ([1]; sample 32 mM): 0 (no brown color); Brown color index in PBS Day 7 ([1]; sample 32 mM, room temperature): 0 (no brown color); Brown color index in PBS Day 0 ([1]; sample 32 mM): 0 (no brown color); Color after exposure (in words) ([2]; MEM without riboflavin): week brown; Color after exposure (in words) ([2]; PBS without riboflavin): stayed colorless"
"C[C@H](N)C(=O)O [Ala, L-alanine]",–,–,–,–,–,–,1 (week brown color),0 (no brown color),0 (no brown color),0 (no brown color),"Color after exposure (in words) ([1]; MEM with 0.013 mM riboflavin): normal brown; Color after exposure (in words) ([1]; PBS with 0.013 mM riboflavin): stayed colorless; Brown color index in cell culture media (MEM) Day 7 ([1]; sample 32 mM, room temperature): 3; Brown color index in cell culture media (MEM) Day 0 ([1]; sample 32 mM): 0 (no brown color); Brown color index in PBS Day 7 ([1]; sample 32 mM, room temperature): 0 (no brown color); Brown color index in PBS Day 0 ([1]; sample 32 mM): 0 (no brown color); Color after exposure (in words) ([2]; MEM without riboflavin): week brown; Color after exposure (in words) ([2]; PBS without riboflavin): stayed colorless"
"NCC(=O)N[C@@H](Cc1ccc(O)cc1)C(=O)O.O.O [Gly-Tyr, glycyl-L-tyrosine dihydrate] (H-Gly-Tyr-OH)",normal brown color,3,0 (no brown color),3,0 (no brown color),reduce this colorization,1 (week brown color),0 (no brown color),0 (no brown color),0 (no brown color),"Effect on brown colorization compared with Tyr ([3]; 2.5 mM Trp in PBS or MEM): the effect is greater; Effect on brown colorization of Trp solution [3, 6]: further reduction or even completely prevented the change in color"
"Cc1cc2nc3c(=O)[nH]c(=O)nc-3n(C[C@H](O)[C@H](O)[C@H](O)CO)c2cc1C [riboflavin, (−)-Riboflavin]",–,–,–,–,–,–,–,–,–,–,"Intensity of brown color (brown color index, in words) ([1]; 0.013 mM riboflavin alone in MEM, 7 days electromagnetic radiation, room temperature): normal brown color; Yellow-green color after exposure ([1]; 0.013 mM riboflavin alone in PBS, 7 days electromagnetic radiation, room temperature): vanished"
